The source of these data is patent publication US20250288704A1, “CXCR4-LIGANDS FOR DIAGNOSTIC AND THERAPEUTIC USE AND PRECURSORS THEREOF” (priority 2021, published 2025).

For data set [1], the target named is CXCR4 (Homo sapiens, UniProt P61073). The data set can be described thus: Determination of inverse IC50 (invIC50): radiolabeled peptide displaced by Fc-131 on Jurkat cells.
Description: For in vitro experiments, cells were counted in a hemocytometer using trypan blue as contrast agent. The cell suspension was centrifuged, and the pellet resuspended in HBSS (+1 wt % BSA) to a concentration of 2 mio cells/mL. 8×3 polystyrene tubes were loaded with 25 μL of the standard ligand ^125I-Fc-131 (see 4.1, 1.00 nM in HBSS) and 25 μL of the ligand to investigate in the respective concentration (10^−4-10^−10 M, n=3 for each concentration). 200 μL of cell suspension (400.000 cells per well) were added to obtain a final peptide concentration range of 10^−5-10^−11 M. The tubes were cooled for 2 h at 8° C. to prevent internalization. The experiment was stopped by removal of the supernatant. 200 μL HBSS were added onto the cells, the suspension centrifuged, and the supernatant pooled with the respective first fractions. This step was repeated once more before the tubes containing the supernatants and the ones containing the cell pellets were subjected to activity measurement in the γ-counter.
For the determination of inverse IC50 (invIC50) values the protocol for the determination of regular IC50 values was resumed with minor changes. The peptide under investigation was radioactively labeled and a stock solution was prepared in HBSS (2.00 nM). A concentration gradient of the standard ligand Fc-131 was prepared in HBSS (10^−4-10^−10 M). A cell tube was then containing 25 μL of the radioactive peptide solution, 25 μL of the respective Fc-131 solution and 200 μL cell suspension (400.000 cells). The experiment was conducted as described above.
Data set [2] in a line: Octanol/PBS partition coefficient (logD7.4). In kind it is physicochemical. The conditions noted are these: n-octanol/PBS pH 7.4, radiolabeled compound. The method, then: The tubes were vortexed at maximum speed for 3 min to ensure equilibrium before centrifugation at 15.000×g for 5 min on a Biofuge 15 from Heraeus Holding GmbH (Osterode, Germany). An aliquot of 100 μL of each fraction was measured in the γ-counter and the log D7.4 calculated as follows: […]

Data set [3] concerns CXCR4-expressing Chem_1 cells. The data set can be described thus: Determination of internalization, dual tracer with 125I-Fc-131. The conditions noted are these: for Cell-bound [%] / Internalized [%]: of total cellular activity. In kind it is cell-based. An outline of the steps: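 Chem_1 cells grown in DMEM-F12 with 10% FBS at 37 °C; wells (n=3 per time point) received medium or AMD3100 (1 mM stock) to block receptors. Unbound, surface-bound and NaOH-lysed internalized fractions were γ-counted; data corrected for non-specific internalization and referred to standard ligand specific internalization.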

A short description of data set [4]: Biodistribution in Jurkat tumor-bearing CB-17 SCID mice. In kind it is in vivo. The conditions noted are these: female, CB-17 SCID, mouse, in vivo, iv, total radioactivity. An outline of the steps: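 CB17-SCID mice bore subcutaneous Jurkat xenografts (2-3×10^7 cells in Matrigel, shoulder), used at 5-8 mm tumor diameter. About 0.5-20 MBq (0.02-0.20 nmol) of 125I-, 177Lu-, 99mTc-, 18F- or 68Ga-labeled ligand given by tail vein; organs weighed and γ-counted after set times.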

Positions of bridges follow the written chain, without caps; N, C: chain ends. Non-standard residues stand in square brackets, D forms with d. Residues, ends and D or L forms follow the SMILES beside them. Groups on a side chain read outwards from the residue. Chains are numbered I, II in the order given. *: point of attachment. X9 = NCCNCC(CNCCN)C(=O)NC[C@@H](NC(=O)CC[C@@H](NC(=O)N[C@H](CCC(=O)O)C(=O)O)C(=O)O)C(=O)*; X2 = OC[C@H]1O[C@@H](O[C@H]2[C@H](O)[C@@H](O)[C@H](*)O[C@@H]2CO)[C@H](O)[C@@H](O)[C@H]1O; X3 = OCC1OC(OC2C(CO)OC(*)C(O)C2O)C(O)C(O)C1O; 2Nal = N[C@@H](Cc1ccc2ccccc2c1)C(=O)O; dCit = NC(=O)NCCC[C@@H](N)C(=O)O; dNMeOrn = CN[C@H](CCCN)C(=O)O; d(hCys) = N[C@H](CCS)C(=O)O; Mercaptoacetyl = O=C(CS)*; X4 = OCC1OC(*)C(O)C(O)C1O; 4Abz = Nc1ccc(C(=O)O)cc1; dDap = NC[C@@H](N)C(=O)O; Ahx = NCCCCCC(=O)O

Chain of CXCR4 (P61073 whole entry): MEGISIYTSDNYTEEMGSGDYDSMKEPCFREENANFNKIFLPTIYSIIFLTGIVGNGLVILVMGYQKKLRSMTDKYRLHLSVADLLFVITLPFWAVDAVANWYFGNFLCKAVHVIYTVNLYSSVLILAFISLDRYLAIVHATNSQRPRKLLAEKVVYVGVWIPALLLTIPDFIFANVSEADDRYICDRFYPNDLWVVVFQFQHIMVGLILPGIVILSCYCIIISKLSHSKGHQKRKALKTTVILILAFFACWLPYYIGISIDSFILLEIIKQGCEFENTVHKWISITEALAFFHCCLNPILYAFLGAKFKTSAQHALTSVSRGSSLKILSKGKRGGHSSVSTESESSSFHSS

Consider `C[C@@H](NC(=O)[C@@H](CCCNC(=N)N)NC(=O)[C@@H](CN)NC(=O)[C@@H](CCSC1OC(CO)C(O)C(O)C1O)NC(=O)[C@@H](CCSC1OC(CO)C(O)C(O)C1O)NC(=O)[C@@H](CCSC1OC(CO)C(O)C(O)C1O)NC(=O)CS)C(=O)Nc1ccc(C(=O)NCCC[C@@H]2C(=O)N[C@@H](CCCNC(=N)N)C(=O)N[C@@H](Cc3ccc4ccccc4c3)C(=O)NCC(=O)N[C@H](Cc3ccc(O)cc3)C(=O)N2C)cc1` (stereo partly drawn) [Tc-CXCR4-9] (I: Mercaptoacetyl-[d(hCys)](X4)[d(hCys)](X4)[d(hCys)](X4)[dDap][dR][dA][4Abz] / II: cyclo([2Nal]G[dY][dNMeOrn]R); amide I:C-II:4), for which, in data set [1], the concentration for half-maximal inhibition (IC50) (as a rule, the midpoint of a concentration-inhibition curve) came out at 3.5 ± 0.65 nM. Also, in data set [2], the logD7.4 was −2.56 ± 0.03 (6). For the same compound, the “Internalized in relation to 125I-Fc-131 [%]” value (“Internalized in relation … [%]” for short) in data set [3] (30 min) was determined as 86.4 ± 9.62%; in data set [3] (90 min), 103 ± 6.56%. For the same compound, the “Cell-bound [%]” value is 3.69 ± 0.56% in data set [3] (30 min) and 3.69 ± 0.49% in data set [3] (90 min). For the same compound, the “Internalized [%]” value in data set [3] (30 min) is recorded as 7.00 ± 0.74%; in data set [3] (90 min), 12.5 ± 0.67%. For the same compound, in data set [3] (90 min), the “Internalization [% Fc-131]” value is reported as 103 (90 min) % Fc-131. Further, the tissue uptake (commonly the percentage of the injected dose found per gram of tissue) at 1 h came to 1.42 %ID/g in data set [4] (% iD/g Blood); 0.47 %ID/g in data set [4] (% iD/g Bone); 0.87 %ID/g in data set [4] (% iD/g Heart); 1.5 %ID/g in data set [4] (% iD/g Intestine); 14.8 %ID/g in data set [4] (% iD/g Kidney); 3.97 %ID/g in data set [4] (% iD/g Liver). The tissue uptake at 1 h worked out at 2.4 %ID/g in data set [4] (% iD/g Lung); 0.24 %ID/g in data set [4] (% iD/g Muscle); 0.5 %ID/g in data set [4] (% iD/g Pancreas); 1.24 %ID/g in data set [4] (% iD/g Spleen); 3.51 %ID/g in data set [4] (% iD/g Stomach); 5.92 %ID/g in data set [4] (% iD/g Tumor).

Consider `C[C@@H](NC(=O)[C@@H](CCCNC(=N)N)NC(=O)[C@@H](CN)NC(=O)[C@@H](CO)NC(=O)[C@@H](CCS[C@@H]1O[C@H](CO)[C@@H](O[C@@H]2O[C@H](CO)[C@H](O)[C@H](O)[C@H]2O)[C@H](O)[C@H]1O)NC(=O)[C@@H](CO)NC(=O)CS)C(=O)Nc1ccc(C(=O)NCCC[C@@H]2C(=O)N[C@@H](CCCNC(=N)N)C(=O)N[C@@H](Cc3ccc4ccccc4c3)C(=O)NCC(=O)N[C@H](Cc3ccc(O)cc3)C(=O)N2C)cc1` [Tc-CXCR4-11] (I: Mercaptoacetyl-[dS][d(hCys)](X2)[dS][dDap][dR][dA][4Abz] / II: cyclo([2Nal]G[dY][dNMeOrn]R); amide I:C-II:4), for which, in data set [1], the half-maximal inhibitory concentration (IC50) turned out to be 2.05 ± 0.95 nM. Moreover, in data set [2], the logD7.4 is −2.94 ± 0.02 (8). The “Internalized in relation … [%]” value in data set [3] (15 min) came to 71.9 ± 11.4%; in data set [3] (30 min) it was 178 ± 26.2%; in data set [3] (60 min) it was 145 ± 19.8%; in data set [3] (120 min), 221 ± 23.4%. The “Cell-bound [%]” value in data set [3] (15 min) was determined as 1.79 ± 0.36%; in data set [3] (30 min), 3.74 ± 0.33%; in data set [3] (60 min), 7.02 ± 0.06%; in data set [3] (120 min) it was 4.25 ± 0.67%. For the same compound, the “Internalized [%]” value is recorded as 3.16 ± 0.46% in data set [3] (15 min), 6.98 ± 0.78% in data set [3] (30 min), 7.10 ± 0.84% in data set [3] (60 min) and 10.8 ± 1.13% in data set [3] (120 min). In data set [3] (120 min), the “Internalization [% Fc-131]” value is recorded as 221 (120 min) % Fc-131. In addition, the tissue uptake at 1 h in data set [4] (% iD/g Blood) came to 1.36 %ID/g; in data set [4] (% iD/g Bone), 0.71 %ID/g; in data set [4] (% iD/g Heart) it was 0.95 %ID/g; in data set [4] (% iD/g Intestine), 0.72 %ID/g; in data set [4] (% iD/g Kidney), 29 %ID/g; in data set [4] (% iD/g Liver) it was 5.94 %ID/g. The tissue uptake at 1 h in data set [4] (% iD/g Lung) worked out at 2.85 %ID/g; in data set [4] (% iD/g Muscle), 0.28 %ID/g; in data set [4] (% iD/g Pancreas) it was 0.48 %ID/g; in data set [4] (% iD/g Spleen), 2.31 %ID/g; in data set [4] (% iD/g Stomach), 1.16 %ID/g; in data set [4] (% iD/g Tumor), 6.71 %ID/g.

On to `C[C@@H](NC(=O)[C@@H](CCCNC(=N)N)NC(=O)[C@@H](CN)NC(=O)[C@@H](CCCNC(N)=O)NC(=O)[C@@H](CCSC1OC(CO)C(OC2OC(CO)C(O)C(O)C2O)C(O)C1O)NC(=O)[C@@H](CCCNC(N)=O)NC(=O)CS)C(=O)Nc1ccc(C(=O)NCCC[C@@H]2C(=O)N[C@@H](CCCNC(=N)N)C(=O)N[C@@H](Cc3ccc4ccccc4c3)C(=O)NCC(=O)N[C@H](Cc3ccc(O)cc3)C(=O)N2C)cc1` (stereo partly drawn) [Tc-CXCR4-12] (I: Mercaptoacetyl-[dCit][d(hCys)](X3)[dCit][dDap][dR][dA][4Abz] / II: cyclo([2Nal]G[dY][dNMeOrn]R); amide I:C-II:4), for which, in data set [1], the IC50 came to 4.82 ± 1.36 nM. In data set [2], the logD7.4 is −2.92 ± 0.06 (8). Moreover, the “Internalized in relation … [%]” value in data set [3] (15 min) amounted to 192 ± 38.1%; in data set [3] (30 min), 284 ± 92.3%; in data set [3] (60 min), 395 ± 72.2%; in data set [3] (120 min) it was 473 ± 41.9%. The “Cell-bound [%]” value in data set [3] (15 min) came to 3.77 ± 0.83%; in data set [3] (30 min) it was 8.56 ± 0.66%; in data set [3] (60 min), 14.1 ± 0.71%; in data set [3] (120 min) it was 7.42 ± 2.12%. In addition, the “Internalized [%]” value in data set [3] (15 min) was 3.79 ± 0.69%; in data set [3] (30 min), 9.64 ± 1.31%; in data set [3] (60 min) it was 11.6 ± 2.01%; in data set [3] (120 min), 18.1 ± 0.85%. In addition, the “Internalization [% Fc-131]” value in data set [3] (120 min) is listed as 473 (120 min) % Fc-131. Moreover, the tissue uptake at 1 h amounted to 1.74 %ID/g in data set [4] (% iD/g Blood); 0.95 %ID/g in data set [4] (% iD/g Bone); 1.14 %ID/g in data set [4] (% iD/g Heart); 1.25 %ID/g in data set [4] (% iD/g Intestine); 35 %ID/g in data set [4] (% iD/g Kidney); 11 %ID/g in data set [4] (% iD/g Liver). The tissue uptake at 1 h in data set [4] (% iD/g Lung) was 3.96 %ID/g; in data set [4] (% iD/g Muscle), 0.34 %ID/g; in data set [4] (% iD/g Pancreas) it was 0.8 %ID/g; in data set [4] (% iD/g Spleen), 4.72 %ID/g; in data set [4] (% iD/g Stomach) it was 2.03 %ID/g; in data set [4] (% iD/g Tumor) it was 7.39 %ID/g.

`C[C@@H](NC(=O)[C@@H](CCCNC(=N)N)NC(=O)[C@@H](CN)NC(=O)CCCCCNC(=O)[C@@H](CNC(=O)C(CNCCN)CNCCN)NC(=O)CC[C@@H](NC(=O)N[C@H](CCC(=O)O)C(=O)O)C(=O)O)C(=O)Nc1ccc(C(=O)NCCC[C@@H]2C(=O)N[C@@H](CCCNC(=N)N)C(=O)N[C@@H](Cc3ccc4ccccc4c3)C(=O)NCC(=O)N[C@H](Cc3ccc(O)cc3)C(=O)N2C)cc1` [Tc-CXCR4-16] (cyclo([2Nal]G[dY][dNMeOrn]([4Abz-dA-dR-dDap-Ahx-X9])R)) registered an IC50 in data set [1] of 6.08 ± 1.03 nM. The logD7.4 in data set [2] is recorded as −2.70 ± 0.04 (8). In data set [3] (30 min), the “Internalized in relation … [%]” value is recorded as 230 ± 10.7%, the “Cell-bound [%]” value worked out at 3.36 ± 0.45% and the “Internalized [%]” value is 15.0 ± 0.31%. For the same compound, in data set [3] (90 min), the “Internalization [% Fc-131]” value is 284 (90 min) % Fc-131, the “Internalized in relation … [%]” value came to 284 ± 10.4%, the “Cell-bound [%]” value was 3.53 ± 0.21% and the “Internalized [%]” value is 19.8 ± 0.15%.

As to “CPCR4-HYNIC [In Literature: 99mTc-CXCR4-L; hydrazino-nicotinic acid attached directly at the D-Orn2 side chain of CPCR4, reference compound]”, in data set [1] (radiolabeled compound displaced by Fc-131, Jurkat cells), the “invIC50 [nM]” value is reported as “No”. In addition, the logD7.4 in data set [2] is on record as −1.84 ± 0.01 (8). Also, the “Internalization [% Fc-131]” value in data set [3] (90 min) is 29 (90 min) % Fc-131.
